Patent US5439891A (priority 1993, dated 1995)

What was measured:
[1] = format: in vivo; details: rats; in combination with piperine
[2] = in vivo
[3] = cited from earlier work

Row | Compound | AUC compared to drugs without piperine in equivalent doses [1] | plasma levels [1] | bioavailability in combination with piperine [2] | bioavailability of the drugs in blood [2] | solubility in organic solvents ([3]; benzene, chlorform, ether, ethyl acetate, dichloromethane, alcohol, acetic acid) | solubility in pet. ether ([3]; pet. ether) | solubility in water ([3]; water)
1 | NNC(=O)c1ccncc1 [isoniazid] | very high AUC | significant increase | – | – | – | – | –
2 | CO[C@H]1/C=C/O[C@@]2(C)Oc3c(C)c(O)c4c(O)c(c(/C=N/N5CCN(C)CC5)c(O)c4c3C2=O)NC(=O)/C(C)=C\C=C\[C@H](C)[C@H](O)[C@@H](C)[C@@H](O)[C@@H](C)[C@H](OC(C)=O)[C@@H]1C [rifampicin] | very high AUC | significant increase | significantly increasing the bioavailability | – | – | – | –
3 | O=C(/C=C/C=C/c1ccc2c(c1)OCO2)N1CCCCC1 [Piperine, (E, E) 1-[5-(1,3-benzodioxyl-5-yl)-1-oxo-2,4-pentadenyl] piperidine] | – | – | – | increase in the bioavailability | soluble | insoluble | insoluble
4 | NC(=O)c1cnccn1 [pyrazinamide] | very high AUC | significant increase | – | – | – | – | –
